These results are taken from patent US12661404B2, “Methods and materials for tissue ablation” (Mayo Foundation for Medical Education and Research, priority 2020, dated 2026).

The conditions of data set [1]: rat, in vivo. Here is the method:
Next, in vivo experiments in immunocompetent rats bearing the highly malignant orthotropic N1S1 liver tumors were ablated using LATTE. Percutaneous injection of LATTE was performed and assessment also included CT imaging to mimic the clinical scenario. […] These tumors also received high-resolution in vivo micro-CT imaging following intravenous injection of Exitron contrast agent to allow accurate segmentation of the liver tumors (FIG. 1p-q). […] These tumors at two-weeks were also harvested and evaluated by histology.
(§1) All procedures were approved by the institutional animal care and use committee and performed according to institutional guidelines. […] N1S1 cells were maintained in suspension in a 75 cm^2 culture flasks at 37° C. in a 5% CO2 humidified chamber. […] To prepare the cells for inoculation, N1S1 cell aliquots were rinsed and suspended in plain IMDM (without antibiotics or serum) to yield 2×10^6 cells in 100 μL of fresh aliquots for each inoculation. The rat liver was surgically exposed through upper midline laparotomy under isoflurane anesthesia followed by subcapsular inoculation of N1S1 cells into the left liver lobe. Gentle compression with gauze for hemostasis was used to prevent cell reflux. The abdominal incision was closed using interrupted Vicryl sutures for abdominal muscle and subcuticular suture for the skin, followed by the application of Vetbond tissue adhesive (3M, St. Paul, MN) followed by recovery from anesthesia. Intratumoral injection of the ionic liquid mixture was performed in three groups of rats bearing 0.5 cm^3 N1S1 tumor lesions measured with ultrasound. […] All solutions contained 0.25 mg/mL indocyanine green (ICG, Sigma-Aldrich, St. Louis, MO) solubilized in normal saline. Following intratumoral injections, treated rats were allowed to survive for 2 weeks after treatment, and tumor volume was documented using ultrasound. N1S1 tumor progression and treatment response was assessed using percutaneous ultrasonography. Selected focal zone depth, gain, and tissue harmonic settings were optimized during the acquisition of the initial imaging at baseline, and the same parameters were applied during acquisition after intratumoral injection of LATTE mixture. Serial ultrasound examinations were performed on rat livers following N1S1 inoculation to confirm tumor formation and assess tumor volume. Rats were anesthetized using a gas mixture of 2-3% isoflurane in 100% oxygen via a nose cone. Rats were secured in a supine position on an electronically controlled warming platform to maintain the temperature at 37° C. during the imaging procedure. The abdominal area was shaved and prepped with depilatory cream (Nair, Church& Dwight Co. INC). Initially, abdominal sonography was performed to delineate tumor mass boundaries in grayscale (B-mode) using ACUSON 52000 system (Siemens Inc., Germany) and a multi-frequency linear transducer (9L4, 9.0 MHz). The transducer was positioned to obtain 2D scans via the subcostal window to document liver tumors and measure lesion diameter. […] Tumor volumes were calculated as following: V=(4/3)×π×(1/2) SI×(1/2)LM×1/2 AP. Color Doppler images were also acquired to detect the distribution of the tumor blood flow weekly.

The subject of a further data set is N1S1 liver tumors. The experiment in a line: Intratumoral injection of LATTE in N1S1 rat model of liver cancer. The class given is in vivo. The procedure: as §1
(§2) To visualize normal liver parenchyma on CT imaging, rats received a bolus injection of 400 μL of the alkaline earth metal-based nanoparticle suspension, Exitron nano 12000 (Miltenyi Biotec, Auburn, CA) two hours prior to micro-CT scanning. Rats were anesthetized using inhalation of 2-3% isoflurane in 100% 02 at a constant flow rate of 2 L/minute and placed on a cassette equipped with a warming system and continuous gas exchange and integrated real-time motion detection camera. Fixed rat tissues were placed and immobilized using styrofoam beads inside a humidified plastic chamber. […] The 3D image stacks were reconstructed using NRecon software and InstaRecon CBR Server (version: 1.7.4.6, Bruker, Kontich, Belgium) following adjustment of random movements, beam-hardening correction, and ring artifact reduction and smoothing. 3D volume rendering was visualized using CTVox software (version: 3.3. 0 r1383, Bruker, Kontich, Belgium). The stacks were virtually rotated and axially oriented to yield transverse projections of select volume of interest (VOI) using Data Viewer software (Bruker, Kontich, Belgium).

A further data set has as its system VX2 liver tumor. Here is the method: as §2
Data set [2] relates to freshly resected human tumors. To be noted: 25%-LATTE mixed with ICG, 24 hours at 37° C., 12 tumors. The procedure:
The fluorescent intensity and diffusion area were calculated using similar parameters for all tissues. […] LATTE was able to ablate a variety of highly malignant human tumors.
Explanted human cancer tissues were collected following surgical resection and placed in RPMI medium for preservation. […] Near-infrared fluorescent imaging (NIRF) was performed at 5 minutes after injection. […] Tissues were transected to reveal the ablated zone were fixed in 10% buffered formalin, embedded in paraffin, then sectioned and subsequently stained with hematoxylin and eosin for microscopic evaluation.

In another data set the test system is subcutaneous fat tissue. To be noted: 25% LATTE mixture subcutaneous. The procedure: Additional experiments were performed on explanted fat tissue obtained from the groin area from pig in a petri dish submersed in saline (FIG. 10).
A further data set relates to human blood clot. Here is the method: In a separate experiment blood coagulation was induced in uncougulated human. A blood volume of 4 mL citrated blood loaded into a polypropylene tube and mixed with 400 μL of 0.2 M calcium chloride (CaCl2) for 10 seconds. Aliquouts of 100 μL were deposited into multiple wells on a 96 well plate and the remaining blood volume was kept in the tube. Coagulation was initiated by incubating the samples at 37° C. for 10 minutes.

As for choline-geranate [LATTE], in data set [1], the ALP result is reported as “*211 ± 29 U/L”, the ALT was 57 ± 13 U/L, the BUN result was “**25 ± 2.4 mg/dL” and the CRE is 0.3 ± 0.04 mg/dL. For the same substance, in data set [1], the CRP was found to be 459 ± 38 ng/mL; the GLU came to 268 ± 75 mg/dL; the “Total Protein” value amounted to 5.2 ± 0.3 g/dL; the “liver and renal function from serum samples” value is “normal liver and renal function”. Moreover, the “tumor volume by micro-CT vs saline” value in the data set with N1S1 liver tumors (2 weeks post-treatment) is recorded as “substantially smaller tumor volumes”. The “tumor size on gray-scale US, smaller than saline injected group” value in the data set on N1S1 liver tumors (25%-LATTE intratumoral, two weeks) was 5 fold. In the data set with N1S1 liver tumors (tumor sections, two weeks), the “CD68-expressing macrophages, increase” value was found to be 16 fold and the “number of apoptotic (cleaved Caspase-3) cells, higher than saline group” value was found to be 24 fold. In the data set with N1S1 liver tumors (two weeks), the “treatment response on micro-CT review by radiologist, size criteria” value is reported as “complete treatment response” and the “tumor histology (H&E)” value is given as “complete tumor necrosis”. For the same substance, in the data set on N1S1 liver tumors (two weeks, vs saline), the “morphometric analysis of tumor size and cell count” value was “significant reduction in tumor size and cell count”; the “proliferating (PCNA) cells” value is reported as “markedly reduced number of proliferating cells”. Besides, the “CD3+ T-lymphocyte infiltration” value with N1S1 liver tumors (within treated tumor margin, two weeks) is “enhanced CD3+T-lymphocyte infiltration”. Further, in the data set on VX2 liver tumor (compared to saline injected tumors), the tumor histology entry is “extensive necrosis”. Besides, the “tumor perfusion (Doppler, laser speckle)” value in the data set on VX2 liver tumor (following injection) is reported as “markedly diminished perfusion”. Moreover, the tumor tissue histology entry in data set [2] is reported as “marked tissue destruction”. Moreover, the “adipocyte ablation in treated zone (histology)” value in the data set on subcutaneous fat tissue is recorded as “complete ablation of the adipocytes”. For the same substance, in the data set with human blood clot (overlayed with LATTE), the “clot dissolution, coagulated blood in multi-wells” value is on record as “clot was dissolved”. The “lysis of blood clot formed in the tube” value with human blood clot (petri dish, incubation with LATTE) is on record as “complete lysis”.
